From patent US8951507B2, “Formulation with irritation reducing action comprising bisabolol and [6]-paradol” (Symrise AG, priority 2009, dated 2015)
Entries after “also recorded” stand apart in the source; their conditions may differ. Read-outs that look alike come from different tables or passages of the source.

Columns and labels:
[1] = system: PGE2 release of human skin cells (keratinocytes); assay: Anti-Prostaglandin E2 (PGE2) assay, A23187-induced PGE2 release, ELISA; type: cell-based; conditions: for Maximum PGE2 inhibition: at optimum concentration, versus A23187-stimulated control; for Optimum: concentration giving maximum PGE2 inhibition; for IC50: primary human epidermal keratinocytes, 2 μM A23187 calcium ionophore, at least two independent experiments, read-out: IC50 (50% of PGE2 release is inhibited)
Protocol: PGE2 is an important inflammatory mediator in the skin. Thus, the inhibiting effect of [6]-paradol and related compounds on (A23187-induced) PGE2 release of human skin cells (keratinocytes) is investigated.
Primary human epidermal keratinocytes are seeded into a 96 well microplate and are cultured in KGM medium to 60-80% confluency. Afterwards, the KGM medium is substituted by KGM medium depleted of hydrocortisone but containing the test compounds (test compound solutions are applied in medium in three different concentrations, each as a triple determination in three different wells, e.g. for [6]-paradol: in experiment 1 the following concentrations were used: 20 μM, 2 μM and 0.2 μM, in experiment 2 the following concentrations were used: 10 μM, 1 μM and 0.1 μM and in experiment 3 the following concentrations were used: 2.5 μM, 0.25 μM and 0.025 μM.
The cells are incubated for 30 minutes. Then, PGE2 release is stimulated by addition of 2 μM A23187 calcium ionophore. After further 30 min incubation, the PGE2 content of the supernatant is quantified in an ELISA (PGE2 Enzyme Immunoassay System from GE Healthcare).
The results set out above were obtained from at least two independent experiments. PGE2 inhibition was calculated in comparison to the calcium ionophore A23187-induced stimulated control (without addition of test compounds).

[2] = literature reports; cited from earlier work
[3] = Stability in cosmetic compositions or products at varying pH (own experiments); type: physicochemical; conditions: basic, neutral or acidic cosmetic compositions or products
Text: Furthermore, in contrast to gingerols and shogaols, in particular to gingerols, which are labile and prone to degradation (J. Pharm. Sci. 2001, 1658-1664), thus showing insufficient stability, according to own experiments [6]-paradol is very stable in cosmetic compositions or products, even at varying pH-values, i.e. in basic, neutral or acidic cosmetic compositions or products.
The synergistic combinations of bisabolol and [6]-paradol, i.e. the formulations according to the present invention, are preferably colourless, are advantageously of low odour and show good stability even at pH values […], which is of particular interest for several cosmetic products such as sunscreen formulations, soaps, deo sticks, alkaline hair colourations and oral care formulations like tooth pastes. The synergistic combinations of bisabolol and [6]-paradol are advantageously stable over a wide range of pH-values, generally in cosmetic compositions or products having a pH-value in the range of 4 to 10, in particular in cosmetic compositions or products having a pH-value in the range of 5 to 9.

## CCCCC[C@H](O)CC(=O)CCc1ccc(O)c(OC)c1 [[6]-Gingerol]
[1]
  Maximum PGE2 inhibition: ~30%
  Optimum: 5 µM
  IC50: 3470 ± 4080 nM
[2]
  Mutagenicity: potent mutagen

## CCCCCCC[C@H](O)CC(=O)CCc1ccc(O)c(OC)c1 [[8]-Gingerol]
[1]
  Maximum PGE2 inhibition: ~70%
  Optimum: 20 µM
  IC50: 1420 ± 670 nM

## CCCCCCCCCC(=O)CCc1ccc(O)c(OC)c1 [[8]-Paradol]
[1]
  Maximum PGE2 inhibition: 80-100%
  Optimum: 10 µM
  IC50: 1480 ± 1210 nM

## CCCCCCCC(=O)CCc1ccc(O)c(OC)c1 [[6]-Paradol, 1-(4-hydroxy-3-methoxyphenyl)-decan-3-one]
[1]; Keratinocyte
  IC50: 130 nM
[1]; among [6]-paradol, [6]-gingerol, [8]-gingerol and [8]-paradol
  PGE2 inhibitory activity compared with the other tested compounds: most active; also recorded: highest activity
[1]
  Maximum PGE2 inhibition: 90-100%
  Optimum: 5 µM
[3]
  Stability in cosmetic compositions or products: very stable
[2]
  Mutagenicity: not mutagenic
